The text below walks through data of patent US20240025880A1 (CHIESI FARMACEUTICI S.P.A., priority 2020, published 2024).

The target of one test is T1, h P2X3 (Homo sapiens, UniProt P56373).
T1 sequence (P56373 1-397): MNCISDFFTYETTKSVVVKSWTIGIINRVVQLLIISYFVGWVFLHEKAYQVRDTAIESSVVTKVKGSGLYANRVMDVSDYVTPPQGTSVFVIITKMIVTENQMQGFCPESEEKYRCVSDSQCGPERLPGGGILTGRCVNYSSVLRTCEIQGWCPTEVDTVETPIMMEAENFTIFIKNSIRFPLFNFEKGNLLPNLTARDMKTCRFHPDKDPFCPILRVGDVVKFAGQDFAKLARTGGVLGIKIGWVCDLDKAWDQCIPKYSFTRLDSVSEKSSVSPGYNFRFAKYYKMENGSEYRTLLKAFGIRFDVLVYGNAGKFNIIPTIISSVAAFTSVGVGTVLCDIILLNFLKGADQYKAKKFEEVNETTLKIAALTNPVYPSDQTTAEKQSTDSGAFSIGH
Nature of the test: In vitro electrophysiology assay for P2X3 (automated whole-cell patch clamp, α,β-MeATP agonist). The test is classed as cell-based. The following applies: 800 nM α,β-MeATP, peak current, read-out: h P2X3 (pIC50 range of activity) (converted). The gist of the method:
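Automated whole-cell patch clamp of P2X3-expressing cells at −60 mV, room temperature, pH 7.4 bath with CsF internal solution. Antagonist preincubated 10 min, then co-applied with 800 nM α,β-MeATP; peak current inhibition versus second agonist response, ten concentrations, IC50 from four-parameter fit.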

The target of another test is T2, h P2X2/3 (Homo sapiens, UniProt P56373+Q9UBL9).
T2 construct: host or cells: cells not described; same protocol as the P2X3 assay
T2 sequence (P56373 1-397): T1 sequence (P56373 1-397)
T2 sequence (Q9UBL9 1-471): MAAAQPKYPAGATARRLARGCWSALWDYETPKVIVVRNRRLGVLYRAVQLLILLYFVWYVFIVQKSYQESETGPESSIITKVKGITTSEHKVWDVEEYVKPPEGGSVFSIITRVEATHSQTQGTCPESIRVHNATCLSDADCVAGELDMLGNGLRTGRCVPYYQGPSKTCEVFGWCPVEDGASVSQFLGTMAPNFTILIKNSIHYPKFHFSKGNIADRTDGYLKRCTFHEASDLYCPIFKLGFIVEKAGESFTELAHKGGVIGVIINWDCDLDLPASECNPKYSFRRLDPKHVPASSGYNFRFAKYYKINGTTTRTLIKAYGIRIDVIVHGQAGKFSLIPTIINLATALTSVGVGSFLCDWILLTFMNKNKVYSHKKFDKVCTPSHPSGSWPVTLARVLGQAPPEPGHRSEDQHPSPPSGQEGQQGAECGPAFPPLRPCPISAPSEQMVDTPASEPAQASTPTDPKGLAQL
Nature of the test: In vitro electrophysiology assay for P2X2/3 (same protocol, 10 μM ATP agonist). Format: cell-based. Particulars: Table 3, mean current seven seconds after agonist, read-out: h P2X2/3 (pIC50 range of activity) (converted). On the procedure:
Cells expressing P2X3 receptors were grown according to standard practice and maintained at 37° C. in a 5% humidified CO2 atmosphere. The cells were seeded into T175 flask 2 days prior to the day of the assay and dissociated from the flasks using TrypLE when grown to confluence of 80-90%. The dissociated cells were resuspended in serum free media at a cell density of 3×10^6 cells/ml and loaded onto the Sophion Qube automated patch-clamp system. The extracellular assay buffer contained 145 mM NaCl, 4 mM KCl, 2 mM CaCl2, 1 mM MgCl2, 10 mM HEPES, and 10 mM glucose at pH 7.4. The intracellular assay solution contained 140 mM CsF, 10 mM NaCl, 10 mM EGTA, 10 mM HEPES at pH 7.2. Agonist stock solutions were prepared in H2O and diluted in bath solution prior to use. All antagonists were prepared as 10 mM stock solutions in DMSO and diluted in bath solution prior to use. All experiments were performed under the whole-cell patch clamp configuration at room temperature with 384 individual cells being voltage clamped at −60 mV simultaneously on the Sophion Qube instrument. Two baseline responses were established with the application of α,β-MeATP (800 nM), with the subsequent agonist applications being washed out using extracellular assay buffer containing 0.5 U/ml apyrase. Following the second agonist application, antagonist was incubated in the absence of α,β-MeATP for 10 minutes. After antagonist preincubation, 800 nM α,β-MeATP and antagonist were co-administered to determine the inhibitory effect of the antagonist. One concentration of an antagonist was assessed against a single cell, with different concentrations of the antagonist applied to other cells on the 384 recording substrate. The control P2X3 current amplitude was taken from the peak current amplitude from the second agonist response prior to preincubation with antagonist. The peak P2X3 current amplitude in the presence of antagonist was used to calculate the inhibitory effect at each concentration of the antagonist according to the following equation: […]
In vitro Electrophysiology Assay for P2X2/3
Representative compound of the present invention have been also tested for P2X2/3 receptor.
The same assay protocol was used for the P2X2/3 assay as the P2X3 assay with two modifications: 1) 10 μM ATP was used as the agonist; and 2) the mean current amplitude was measured seven seconds after the application of agonist.

Counter-ions that a name gives are not always drawn. Like-named read-outs stand apart in the source and are kept apart here.

For `COC(=O)C1(NC(=O)COc2cc(-c3ccc(F)cc3)cc3c(N[C@H](C)c4cnc(C(F)(F)F)nc4)ncnc23)CC1` [Example 43, Methyl (R)-1-(2-((6-(4-fluorophenyl)-4-((1-(2-(trifluoromethyl)pyrimidin-5-yl)ethyl)amino)quinazolin-8-yl)oxy)acetamido) cyclopropane-1-carboxylate], the IC50 is 0.316 to 3.16 µM on h P2X3 (Table 2), 0.316 to 3.16 µM at h P2X3 (Table 3) and 3.16 to 31.6 µM on h P2X2/3.
Consider `C[C@@H](Nc1ncnc2c(OCC3(C(=O)O)CCNCC3)cc(-c3ccc(F)cc3)cc12)c1cnc(C(F)(F)F)nc1` [Example 47, (R)-4-(((6-(4-fluorophenyl)-4-((1-(2-(trifluoromethyl)pyrimidin-5-yl)ethyl)amino)quinazolin-8-yl)oxy)methyl)piperidine-4-carboxylic acid hydrochloride], for which the results for the IC50 on h P2X3 (Table 2), on h P2X3 (Table 3) and on h P2X2/3 were 0.316 to 3.16 µM, 0.316 to 3.16 µM and 3.16 to 31.6 µM, respectively.
As for `Cc1ccc(CNc2ncnc3c(OCc4nnc(C5CC5)o4)cc(-c4ccc(F)cc4)cc23)nn1` [Example 62, 8-((5-cyclopropyl-1,3,4-oxadiazol-2-yl)methoxy)-6-(4-fluorophenyl)-N-((6-methylpyridazin-3-yl)methyl)quinazolin-4-amine], the IC50 at h P2X3 (Table 2) is less than 0.316 µM; at h P2X3 (Table 3), less than 0.316 µM; at h P2X2/3, 0.316 to 3.16 µM.
As for `COC(=O)N1CCC(Oc2cc(-c3ccc(F)cc3)cc3c(NCc4ccc(C)nn4)ncnc23)CC1` [Example 65, Methyl 4-[6-(4-fluorophenyl)-4-[(6-methylpyridazin-3-yl)methylamino]quinazolin-8-yl]oxypiperidine-1-carboxylate], the results for the IC50 at h P2X3 (Table 2), at h P2X3 (Table 3) and at h P2X2/3 were 0.316 to 3.16 µM, 0.316 to 3.16 µM and 3.16 to 31.6 µM, respectively.
Turning to `COC(=O)N1CCC(Oc2cc(-c3ccc(F)cc3)cc3c(NCc4ccc(C)nn4)ncnc23)C1` (stereo not drawn) [Example 68, Methyl 3-[6-(4-fluorophenyl)-4-[(6-methylpyridazin-3-yl)methylamino]quinazolin-8-yl]oxypyrrolidine-1-carboxylate], the IC50 at h P2X3 (Table 2) is 0.316 to 3.16 µM; at h P2X3 (Table 3), 0.316 to 3.16 µM; at h P2X2/3, 3.16 to 31.6 µM.
